Test results reported in publication PMC9835529, “Investigation of Novel Quinoline–Thiazole Derivatives as Antimicrobial Agents: In Vitro and In Silico Approaches” (ACS Omega, 2022).
Converted amounts (≈) assume the structure as drawn. Where two headings read alike, the source gives them in different places.

Legend:
[1] = test system: Candida parapsilosis ATCC 22019; assay: Anticandidal broth microdilution (EUCAST EDef 7.1), MIC90; format: cell-based; settings: Lodderomyces parapsilosis, ATCC22019, C. parapsilosis ATCC 22019; read-out: MIC90
Excerpt: (§1) E. coli (ATCC 35218), E. coli (ATCC 25922), S. aureus (ATCC 6538), methicillin-resistant S. aureus (MRSA) (clinical isolate), S. typhimurium (ATCC 13311), and K. pneumoniae (NCTC 9633) cells for antibacterial effect, and C. albicans (ATCC 24433), C. glabrata (ATCC 90030), C. krusei (ATCC 6258), and C. parapsilosis (ATCC 22019) for the antifungal effect of the final compounds were used to determine the MIC90 values. The broth microdilution procedure specified in the M07-A9 document of the Clinical and Laboratory Standards Institute (CLSI) was used for antibacterial study,[55] and the EDef 7.1 document published by EUCAST was used for the antifungal study.[56] For both activity studies, the detailed procedures were explained in previous studies.[57],[58]

[2] = test system: Candida albicans ATCC 24433; assay: as above; format: cell-based; settings: Candida albicans, ATCC24433, C. albicans ATCC 24433; read-out: MIC90
Excerpt: as §1

Candida krusei ATCC 6258 = assay: as above; format: cell-based; settings: Pichia kudriavzevii, ATCC6258, C. krusei ATCC 6258; read-out: MIC90
Excerpt: as §1

[3] = test system: Lanosterol 14α-demethylase (LMD, CYP51A1); assay: LDM (CYP51A1) inhibition by LC-MS-MS quantification of ergosterol level; format: cell-based
Experimental: (§2) The activity of the target compounds was tested against Candida strains via the determination of ergosterol production.
(§3) Ergosterol level was determined using the extract of total sterols from C. albicans (and its other species) following the method described by Breivik and Owades.[63] Quantification of the ergosterol level in this extract was carried out by the recently described method.[58],[64]−[66] According to these described studies, in the current work, compounds 4b, 4e, 4f, and 4h–m were undertaken to investigate their action mechanism. Thus, the LC-MS-MS-based method that quantifies the ergosterol level was applied. […]. Ergosterol quantity in negative control samples was regarded as 100%. All concentrations were analyzed in quadruplicate, and the results were expressed as mean ± standard deviation (SD).

[4] = test system: Escherichia coli ATCC 35218; assay: Antibacterial broth microdilution (CLSI M07-A9), MIC90; format: cell-based; settings: Escherichia coli, ATCC35218; E. coli ATCC 35218
Excerpt: (§4) The broth microdilution procedure specified in the M07-A9 document of the Clinical and Laboratory Standards Institute (CLSI) was used for antibacterial study,[55] and the EDef 7.1 document published by EUCAST was used for the antifungal study.[56] For both activity studies, the detailed procedures were explained in previous studies.[57],[58]

E. coli ATCC 25922 = assay: as above; format: cell-based; settings: Escherichia coli, ATCC25922
Excerpt: as §4

[5] = test system: Salmonella typhimurium ATCC 13311; assay: as above; format: cell-based; settings: Salmonella enterica; S. typhimurium ATCC 13311
Excerpt: as §4

[6] = test system: Klebsiella pneumoniae NCTC 9633; assay: as above; format: cell-based; settings: NCTC9633, K. pneumoniae NCTC 9633
Excerpt: as §4

[7] = test system: methicillin-resistant S. aureus (MRSA) (clinical isolate); assay: as above; format: cell-based; settings: Staphylococcus aureus
Excerpt: as §4

[8] = test system: Staphylococcus aureus ATCC 6538; assay: as above; format: cell-based; settings: Staphylococcus aureus, ATCC6538; S. aureus ATCC 6538; read-out: MIC90
Excerpt: as §4

C. glabrata ATCC 90030 = assay: Anticandidal broth microdilution (EUCAST EDef 7.1), MIC90; format: cell-based, Candida glabrata; settings: Nakaseomyces glabratus, ATCC90030, C. glabrata ATCC 90030
Excerpt: as §1

NIH/3T3 cells = assay: Cytotoxicity on NIH/3T3 healthy cell line; format: cell-based; settings: Mus musculus, NIH3T3, 24 h incubation
Experimental: NIH/3T3 cells were incubated in Dulbecco’s modified Eagle’s medium (DMEM) (Sigma-Aldrich, St. Louis, MO), added with fetal calf serum, penicillin (100 IU/mL), streptomycin ([…]), and 7.5% NaHCO3 at 37 °C in a humidified atmosphere of 95% air and 5% CO2. NIH/3T3 cells were seeded into the 96-well plates at a density of 1 × 10^4 cells. After 24 h of incubating period, the culture media were removed, and test compounds were added. After 24 h of incubation period, colorimetric measurements were performed by a microplate reader (Biotek) at 540 nm. Inhibition % at all concentrations was determined using the formula below, and the IC50 values were calculated from a dose–response curve obtained by plotting the percentage inhibition versus the log concentration with the use of Microsoft Excel 2013.

[9] = target: T1, Lanosterol 14α-demethylase (LMD, CYP51A1) (Candida glabrata, UniProt P50859); assay: LDM (CYP51A1) inhibition by LC-MS-MS quantification of ergosterol level; format: cell-based; settings: for inhibition at 0.06 µg/mL / inhibition at 0.24 µg/mL / inhibition at 0.98 µg/mL: read-out: CYP51A1 Inhibition%
T1 construct: tested against Candida strains via the determination of ergosterol production; endogenous in cells; host or cells: C. glabrata (ATCC 90030)
T1 sequence (P50859 whole entry): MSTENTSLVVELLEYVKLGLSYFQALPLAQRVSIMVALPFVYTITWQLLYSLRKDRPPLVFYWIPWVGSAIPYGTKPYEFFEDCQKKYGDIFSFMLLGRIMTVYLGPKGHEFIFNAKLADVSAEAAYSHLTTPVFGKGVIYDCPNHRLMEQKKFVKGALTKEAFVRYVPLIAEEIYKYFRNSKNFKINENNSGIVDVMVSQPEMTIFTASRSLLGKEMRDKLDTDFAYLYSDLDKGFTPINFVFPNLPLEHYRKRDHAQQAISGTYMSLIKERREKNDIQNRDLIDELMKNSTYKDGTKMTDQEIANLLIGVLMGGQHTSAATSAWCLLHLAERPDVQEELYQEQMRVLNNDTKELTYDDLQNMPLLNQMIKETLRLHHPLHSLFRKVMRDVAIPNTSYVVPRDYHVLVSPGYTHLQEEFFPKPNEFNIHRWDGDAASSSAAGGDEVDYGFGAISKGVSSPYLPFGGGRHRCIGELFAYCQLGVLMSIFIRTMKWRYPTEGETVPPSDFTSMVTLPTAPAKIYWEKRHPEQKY
Experimental: as §2, §3

Row | MIC90 [1] | MIC90 [2] | MIC90 (Candida krusei ATCC 6258) | melting point | MIC90 [4] | MIC90 (E. coli ATCC 25922) | MIC90 [5] | MIC90 [6] | MIC90 [7] | MIC90 [8] | MIC90 (C. glabrata ATCC 90030) | inhibition at 0.06 µg/mL ([9]; C. glabrata, 0.06 μg/mL) | inhibition at 0.24 µg/mL ([9]; C. glabrata, 0.24 μg/mL) | inhibition at 0.98 µg/mL ([9]; C. glabrata, 0.98 μg/mL) | SMILES | CYP51A1 Inhibition% ([3]; C. krusei, 0.06 μg/mL) | CYP51A1 Inhibition% ([3]; C. krusei, 0.24 μg/mL) | CYP51A1 Inhibition% ([3]; C. krusei, 0.98 μg/mL) | IC50 (NIH/3T3 cells) | effect on ergosterol production / LMD enzyme inhibition (in words) ([9]; C. glabrata) | also measured
1 | 3.91 µg/mL (≈ 9.56 µM) | > 1000 µg/mL | 3.91 µg/mL (≈ 9.56 µM) | 194 to 196 °C | > 1000 µg/mL | > 1000 µg/mL | > 1000 µg/mL | > 1000 µg/mL | > 1000 µg/mL | > 1000 µg/mL | < 0.06 µg/mL | 42.1 ± 1.56% | 53.8 ± 2.39% | 65.1 ± 1.68% | COc1ccc2nc(Cl)c(C=NNc3nc(-c4ccc(C)cc4)cs3)cc2c1 [4f] |  |  |  | > 1000 µM | showed their anticandidal activity via LMD enzyme inhibition | 
2 |  |  |  |  |  |  |  |  |  |  |  |  |  |  | OC(Cn1cncn1)(Cn1cncn1)c1ccc(F)cc1F [fluconazole, reference compound] | 43.378 ± 0.937% | 60.132 ± 2.042% | 72.523 ± 1.961% |  |  | inhibition at 0.06 µg/mL [9]: 46.3 ± 0.936%; inhibition at 0.24 µg/mL [9]: 63.7 ± 2.19%; inhibition at 0.98 µg/mL [9]: 70.1 ± 2.05%; CYP51A1 Inhibition% ([3]; C. parapsilosis, 0.06 μg/mL): 49.579 ± 1.733%; CYP51A1 Inhibition% ([3]; C. parapsilosis, 0.24 μg/mL): 61.533 ± 1.282%; CYP51A1 Inhibition% ([3]; C. parapsilosis, 0.98 μg/mL): 73.204 ± 2.031%
3 | 15.6 µg/mL (≈ 37.9 µM) | > 1000 µg/mL | 31.2 µg/mL (≈ 75.7 µM) | 193 to 195 °C | > 1000 µg/mL | > 1000 µg/mL | > 1000 µg/mL | > 1000 µg/mL | > 1000 µg/mL | > 1000 µg/mL | 1.95 µg/mL (≈ 4.72 µM) |  |  |  | COc1ccc2nc(Cl)c(/C=N/Nc3nc(-c4ccc(F)cc4)cs3)cc2c1 [4a] |  |  |  | 39.8 ± 1.45 µM |  | 
4 | 3.91 µg/mL (≈ 9.31 µM) | 3.91 µg/mL (≈ 9.31 µM) | 62.5 µg/mL (≈ 149 µM) | 240 to 242 °C | > 1000 µg/mL | > 1000 µg/mL | > 1000 µg/mL | > 1000 µg/mL | > 1000 µg/mL | > 1000 µg/mL | < 0.06 µg/mL | 16.7 ± 0.774% | 18.3 ± 0.785% | 21.7 ± 0.955% | COc1ccc2nc(Cl)c(/C=N/Nc3nc(-c4ccc(C#N)cc4)cs3)cc2c1 [4e] |  |  |  | > 1000 µM | did not decrease the ergosterol production compared to the standard drugs | 
5 | 31.2 µg/mL (≈ 71 µM) | > 1000 µg/mL | 31.2 µg/mL (≈ 71 µM) | 245 to 253 °C | > 1000 µg/mL | > 1000 µg/mL | > 1000 µg/mL | > 1000 µg/mL | > 1000 µg/mL | > 1000 µg/mL | 62.5 µg/mL (≈ 142 µM) |  |  |  | COc1ccc2nc(Cl)c(/C=N/Nc3nc(-c4ccc([N+](=O)[O-])cc4)cs3)cc2c1 [4c] |  |  |  | 31.6 ± 0.87 µM |  | 

Row | SMILES | MIC90 [1] | MIC90 [2] | MIC90 (Candida krusei ATCC 6258) | melting point | MIC90 [4] | MIC90 (E. coli ATCC 25922) | MIC90 [5] | MIC90 [6] | MIC90 [7] | MIC90 [8] | MIC90 (C. glabrata ATCC 90030) | inhibition at 0.06 µg/mL ([9]; C. glabrata, 0.06 μg/mL) | inhibition at 0.24 µg/mL ([9]; C. glabrata, 0.24 μg/mL) | inhibition at 0.98 µg/mL ([9]; C. glabrata, 0.98 μg/mL) | CYP51A1 Inhibition% ([3]; C. krusei, 0.06 μg/mL) | CYP51A1 Inhibition% ([3]; C. krusei, 0.24 μg/mL) | CYP51A1 Inhibition% ([3]; C. krusei, 0.98 μg/mL) | IC50 (NIH/3T3 cells) | effect on ergosterol production / LMD enzyme inhibition (in words) ([9]; C. glabrata) | also measured
6 | COc1ccc2nc(Cl)c(C=NNc3nc(-c4cccc(Cl)c4)cs3)cc2c1 [4h] | 125 µg/mL (≈ 291 µM) | > 1000 µg/mL | ≤ 0.06 µg/mL | 200 to 202 °C | > 1000 µg/mL | > 1000 µg/mL | > 1000 µg/mL | > 1000 µg/mL | > 1000 µg/mL | > 1000 µg/mL | 31.2 µg/mL (≈ 72.8 µM) |  |  |  | 45.530 ± 0.961% | 60.184 ± 1.985% | 67.651 ± 1.736% | 14.5 ± 0.57 µM |  | effect on ergosterol production / LMD enzyme inhibition (in words) ([3]; C. krusei): showed their anticandidal activity via LMD enzyme inhibition
